Data reported in patent US8106092B2, “Treatment of solid cancers” (priority 2004, dated 2012).

Assays:
[1] = test system: B16-OVA lung metastases; assay: B16-OVA melanoma lung metastasis model; assay type: in vivo, C57BL/6 mice
Experimental: FIGS. 4A to D are graphical representations showing protection against secondary tumors following cure of primary tumors with PEP005. (A) C57BL/6 mice received 5×10^5 Lewis lung-OVA s.c. on the back on day less 7 (d−7). When these primary tumors had reached an average 13.6 mm^2±1.8 SE (range 10-25 mm^2) on d0 they were treated once with 16 μg of PEP005 delivered i.t. In eight mice these primary tumors were cured, and these mice received 5×10^5 Lewis lung-OVA s.c. on d4 on the opposite flank from the primary tumors. The emergence of these secondary tumors was monitored over time (PEP005 cured). In a parallel group of animals (n=5) PEP005 treatment regressed the primary tumors, but after 11-13 days the primary tumors re-emerged. These animals also received secondary tumors as above and their emergence was again monitored over time (PEP005 regressed). Two control groups were included. One group (n=6) received no primary tumors, but was treated s.c. with PEP005 and received secondary tumors on the opposite flank (white triangles, PEP005 s.c.). The second control group (n=8) also received no primary tumors, was not treated with PEP005, and received secondary tumors as above (Controls). […] Secondary B16-OVA (10^5) were injected i.v. on d6 and animals were sacrificed on d27 and lung metastases counted. […]

[2] = test system: B16-OVA tumors; assay: PEP005-mediated cure of primaries plus DC therapy, growth of secondary tumors, s.c. B16-OVA model; assay type: in vivo, C57BL/6 mice; settings: Log rank p<0.001 (PEP005) and =0.002 (DC)
Experimental: FIGS. 13A to C are graphical representations showing synergistic effects between PEP005-mediated cure of primaries and DC therapy on the growth of secondary tumors and on CD8^+ T-cell induction. (A) On d−3 C57BL/6 mice where inoculated with 2×10^6 B16-OVA cells on the right flank (primary tumor) and 2×10^4 B16-OVA cells on the left flank (secondary tumor). On d0 and d1 the primary B16-OVA tumors, which has reach 30.4 mm^2+SD6 were cured with i.t. injections of 25 μg of PEP005 formulated in PEG400. On d4 and d11 mice received DC therapy using DC2.4 cells pulsed with SVYDFFVWL [SEQ ID NO:1], KVPRNQDWL [SEQ ID NO:4] and SIINFEKL [SEQ ID NO:2] peptides, and ovalbumin (n=12, PEP005+DC). […] Animal groups were established and treated as in (A) except that on d12 mice were sacrificed and splenocytes analyzed in an ex vivo ELISPOT assay for responses to SVYDFFVWL [SEQ ID NO:1], KVPRNQDWL [SEQ ID NO:4] and SIINFEKL [SEQ ID NO:2] […]
To determine whether the immunostimulatory activity of PEP005-mediated cure of primary tumors would synergize with DC therapy to reduce growth of secondaries, four groups of C57BL/6 mice were established using the s.c. B16-OVA model. […] The growth of secondary tumors was monitored over time.

C/C=C(/C)C(=O)O[C@H]1C(C)=C[C@]23C(=O)[C@@H](C=C(CO)[C@@H](O)[C@]12O)[C@H]1[C@@H](C[C@H]3C)C1(C)C [PEP005, ingenol-3-angelate]
growth of lung metastases ([1]; partial regression of the primary tumors by PEP005): failed to inhibit significantly
number of lung metastases ([1]; s.c. primary B16-OVA cured by PEP005, B16-OVA i.v. six days after treatment, Wilcoxon p=0.046): reduce significantly
growth of secondaries vs no treatment controls [2]: significantly reduced the growth of secondaries
